In experiment [1] the target is T1, E3 ubiquitin-protein ligase CBL-B (Homo sapiens, UniProt Q13191). The experiment is described as follows: Inhibition of N-terminal Avi-tagged human CBL-B (36 to 427 residues) incubated with 60 nM Src kinase for 1.5 hrs followed by incubation with fluorescently labeled UbcH5B-Ub for 1 hr and measured by TR-FRET assay. The class given is single protein. (In general: Time-resolved FRET reads energy transfer from a long-lived donor to a nearby acceptor.)

Experiment [2] has as its target T1, E3 ubiquitin-protein ligase CBL-B. In words: Binding affinity towards N-terminal biotinylated Avi-tagged human CBL-B (36 to 427 residues) measured by surface plasmon resonance assay. For orientation: SPR reads the build-up and loss of mass on a sensor chip optically.
The nature of experiment [3]: Induction of anti-CD3/CD28 antibodies-stimulated human T cell activation at 4 uM assessed fold increase in IL-2 secretion measured by ELISA assay. The class given is functional, T cell line.
Experiment [4] is described as follows: Induction of anti-CD3/CD28 antibodies-stimulated human T cell activation at 1 uM assessed fold increase in IL-2 secretion measured by ELISA assay. The class given is functional, T cell line. In general terms: In an ELISA, binding on a coated surface is turned into a signal by an enzyme label.
Experiment [5] is described as follows: Induction of anti-CD3/CD28 antibodies-stimulated human T cell activation at 0.3 uM assessed fold increase in IL-2 secretion measured by ELISA assay. It is filed as functional, T cell line.
A short description of experiment [6]: Induction of anti-CD3 antibodies-stimulated human T cell activation at 8 uM assessed fold increase in IL-2 secretion measured by ELISA assay. Further: reference of the scale not given here. It is filed as functional, T cell line.
Experiment [7] can be described thus: Induction of anti-CD3 antibodies-stimulated human T cell activation at 1 uM assessed fold increase in IL-2 secretion measured by ELISA assay. Further: reference of the scale not given here. The class given is functional, T cell line.
A short description of experiment [8]: Induction of anti-CD3/CD28 antibodies-stimulated human T cell activation at 4 uM assessed fold increase in CD25 expression measured by ELISA assay. The class given is functional, T cell line.
Experiment [9] in a line: Induction of anti-CD3/CD28 antibodies-stimulated human T cell activation at 1 uM assessed fold increase in CD25 expression measured by ELISA assay. It is filed as functional, T cell line.
The nature of experiment [10]: Induction of anti-CD3/CD28 antibodies-stimulated human T cell activation at 0.3 uM assessed fold increase in CD25 expression measured by ELISA assay. It is filed as functional, T cell line.
A short description of experiment [11]: Induction of anti-CD3 antibodies-stimulated human T cell activation at 8 uM assessed fold increase in CD25 expression measured by ELISA assay. Further: reference of the scale not given here. It is filed as functional, T cell line.
The nature of experiment [12]: Induction of anti-CD3 antibodies-stimulated human T cell activation at 1 uM assessed fold increase in CD25 expression measured by ELISA assay. Further: reference of the scale not given here. The class given is functional, T cell line.

T1 sequence (Q13191 whole entry, the tested form may be a part): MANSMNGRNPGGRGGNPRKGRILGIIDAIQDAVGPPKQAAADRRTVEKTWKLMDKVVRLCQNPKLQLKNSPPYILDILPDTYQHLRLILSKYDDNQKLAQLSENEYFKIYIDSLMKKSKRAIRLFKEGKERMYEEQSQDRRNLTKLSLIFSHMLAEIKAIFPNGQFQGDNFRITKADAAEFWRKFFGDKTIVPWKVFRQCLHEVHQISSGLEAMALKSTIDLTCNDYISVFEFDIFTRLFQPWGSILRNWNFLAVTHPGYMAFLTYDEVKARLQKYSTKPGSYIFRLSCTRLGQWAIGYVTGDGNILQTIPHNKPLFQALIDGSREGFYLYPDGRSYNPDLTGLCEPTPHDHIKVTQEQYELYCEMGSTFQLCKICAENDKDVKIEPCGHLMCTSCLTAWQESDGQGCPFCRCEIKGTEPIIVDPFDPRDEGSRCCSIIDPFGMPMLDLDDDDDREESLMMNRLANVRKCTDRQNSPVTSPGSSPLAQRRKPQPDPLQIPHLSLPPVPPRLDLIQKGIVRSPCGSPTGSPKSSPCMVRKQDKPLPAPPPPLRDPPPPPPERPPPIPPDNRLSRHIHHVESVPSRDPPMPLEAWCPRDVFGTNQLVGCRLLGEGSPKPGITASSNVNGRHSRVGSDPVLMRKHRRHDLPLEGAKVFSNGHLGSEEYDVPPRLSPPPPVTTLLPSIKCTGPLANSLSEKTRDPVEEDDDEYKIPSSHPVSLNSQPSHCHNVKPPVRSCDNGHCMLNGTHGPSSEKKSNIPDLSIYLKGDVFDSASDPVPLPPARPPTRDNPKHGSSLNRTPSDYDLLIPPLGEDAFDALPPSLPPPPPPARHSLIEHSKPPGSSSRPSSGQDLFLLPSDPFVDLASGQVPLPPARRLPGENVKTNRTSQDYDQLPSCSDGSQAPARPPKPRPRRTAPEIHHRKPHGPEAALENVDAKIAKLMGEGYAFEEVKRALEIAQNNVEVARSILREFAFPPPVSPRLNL

What is called IC50 is the concentration at which inhibition is half-maximal. What is called Kd is the equilibrium constant for the complex coming apart. A low value points to a tighter complex. Molecule `C[C@H](CC1=NN=CC1C(F)(F)F)c1cccc(N2Cc3c(cc(C(=O)N4CC[C@H](O)C4)cc3C(F)(F)F)C2=O)c1` (stereo partly drawn) returned an IC50 in experiment [1] of less than 100 nM. The Kd in experiment [2] is less than 100 nM. The “fold change (FC)” value was 2.51 in experiment [3]; 1.01 in experiment [4]; 1.01 in experiment [5]; 0.151 in experiment [6]; 0.051 in experiment [7]; 1.01 in experiment [8]. Besides, the “fold change (FC)” value in experiment [9] is 1.01; in experiment [10], 1.01; in experiment [11] it was “>=1.001”; in experiment [12] it was 0.801.
For the molecule `C[C@H](Cc1nncn1C)c1cccc(N2Cc3c(cc(CN4CC(F)C4)cc3C(F)(F)F)C2=O)c1`, the IC50 in experiment [1] was less than 100 nM. For the same molecule, in experiment [2], the Kd is less than 100 nM. The “fold change (FC)” value in experiment [3] was “>=7.5”; in [4], “>=7.5”; in experiment [5], 2.51; in experiment [6], “>=0.201”; in [7] it was 0.151; in experiment [8], 1.31. In addition, the “fold change (FC)” value was 1.01 in [9], 1.01 in [10], “>=1.001” in experiment [11] and “>=1.001” in experiment [12].
On to `C[C@H](Cc1nncn1C)c1cccc(NC(=O)c2cc(C3CC3)nc(C3CC3)n2)c1`, for which the 50% inhibitory concentration (IC50) in [1] is less than 100 nM. The Kd in [2] was less than 100 nM. The “fold change (FC)” value is listed as “>=7.5” in experiment [3]; 5 in experiment [4]; 2.51 in [5]; “>=0.201” in experiment [6]; “>=0.201” in experiment [7]; 1.51 in experiment [8]. The “fold change (FC)” value in experiment [9] was 1.51; in experiment [10], 1.01; in [11], “>=1.001”; in experiment [12] it was “>=1.001”.
In turn, `Cc1c[nH]nc1-c1cc2c(c(C(F)(F)F)c1)CN(c1cccc([C@H](C)Cc3nncn3C)c1)C2=O` yielded an IC50 in experiment [1] of less than 100 nM. The molecule also displayed a Kd in experiment [2] of less than 100 nM. For the same molecule, the “fold change (FC)” value in experiment [3] is given as “>=7.5”; in experiment [4] it was 5; in experiment [5] it was 1.01; in [6], “>=0.201”; in [7], “>=0.201”; in [8], “>=1.76”. Also, the “fold change (FC)” value in experiment [9] is 1.51; in experiment [10] it was 1.31; in experiment [11] it was 0.801; in experiment [12], 0.601.
In experiment [1], `C[C@H](Cc1nncn1C)c1cccc(NC(=O)c2ccc(CO)c(C3CC3)n2)c1` yielded an IC50 of less than 100 nM. The same molecule gave a Kd in [2] of less than 100 nM. Further, the “fold change (FC)” value in experiment [3] is recorded as “>=7.5”; in [4], “>=7.5”; in [5] it was “>=7.5”; in experiment [6], “>=0.201”; in experiment [7], “>=0.201”; in experiment [8] it was 1.51. The “fold change (FC)” value in [9] was 1.51; in experiment [10], 1.31; in experiment [11], “>=1.001”; in experiment [12] it was “>=1.001”.
With `Cc1conc1C[C@@H](C)c1cccc(N2Cc3c(cc(C(=O)N4CC[C@H](O)C4)cc3C(F)(F)F)C2=O)c1`, the half-maximal inhibitory concentration (IC50) in [1] was less than 100 nM. In [2], this molecule yielded a Kd of less than 100 nM. Moreover, the “fold change (FC)” value in [3] is on record as “>=7.5”; in experiment [4], 5; in experiment [5] it was 2.51; in experiment [6], “>=0.201”; in experiment [7], 0.101; in experiment [8] it was 1.01. The “fold change (FC)” value in experiment [9] is 1.01; in experiment [10], 1.01; in [11], “>=1.001”; in [12], “>=1.001”.
Turning to `C[C@H](Cc1nncn1C)c1cccc(N2Cc3c(cc(C(=O)N4C[C@@H](O)C[C@H]4C)cc3C(F)(F)F)C2=O)c1.O=C(O)C(F)(F)F`, the IC50 in experiment [1] was less than 100 nM. In addition, the Kd in [2] is less than 100 nM. In addition, the “fold change (FC)” value in [3] is listed as “>=7.5”; in experiment [4], 5; in experiment [5] it was 2.51; in experiment [6], “>=0.201”; in experiment [7], “>=0.201”; in experiment [8], “>=1.76”. For the same molecule, the “fold change (FC)” value was 1.51 in experiment [9], 1.31 in [10], “>=1.001” in experiment [11] and 0.801 in experiment [12].
The molecule `Cn1cnnc1C(F)(F)[C@](C)(F)c1cccc(N2Cc3c(cc(CN4CC[C@@H](S(C)(=O)=O)C4)cc3C(F)(F)F)C2=O)c1` came in with a concentration for half-maximal inhibition (IC50) in experiment [1] of less than 100 nM. In [2], this molecule displayed a Kd of less than 100 nM. The “fold change (FC)” value in experiment [3] was “>=7.5”; in experiment [4] it was 5; in experiment [5], 2.51; in [6] it was “>=0.201”; in [7], 0.151; in experiment [8] it was 1.31. Further, the “fold change (FC)” value is 1.01 in [9], 1.01 in experiment [10], “>=1.001” in experiment [11] and 0.801 in experiment [12].
Consider `CC(C)Nc1cc([C@H](C)Cc2nncn2C)cc(N2Cc3c(cccc3C(F)(F)F)C2=O)n1`, for which, in [1], the IC50 is less than 100 nM. Also, the Kd in experiment [2] is less than 100 nM. In addition, the “fold change (FC)” value in [3] was “>=7.5”; in [4] it was 2.51; in experiment [5], 1.01; in experiment [6], “>=0.201”; in experiment [7] it was 0.101; in experiment [8], 1.31. The “fold change (FC)” value in experiment [9] is 1.01; in experiment [10] it was 1.01; in experiment [11], “>=1.001”; in [12] it was 0.801.
With `C[C@H](Cc1nncn1C)c1cccc(N2Cc3c(cc(N(C)[C@H]4CCNC4)cc3C(F)(F)F)C2=O)c1`, the IC50 in experiment [1] is less than 100 nM. The equilibrium dissociation constant (Kd) in experiment [2] was less than 100 nM. Also, the “fold change (FC)” value in [3] is recorded as “>=7.5”; in experiment [4] it was 2.51; in [5], 2.51; in experiment [6], “>=0.201”; in experiment [7], 0.151; in experiment [8] it was 1.51. For the same molecule, the “fold change (FC)” value in experiment [9] was 1.31; in [10] it was 1.31; in [11], “>=1.001”; in experiment [12], 0.801.
Molecule `CNc1cc([C@H](C)Cc2nncn2C)cc(N2Cc3c(cccc3C(F)(F)F)C2=O)n1` had an IC50 in [1] of less than 100 nM. The molecule also showed a Kd in [2] of less than 100 nM. For the same molecule, the “fold change (FC)” value in experiment [3] amounted to 5; in experiment [4], 1.01; in experiment [5] it was 1.01; in [6], 0.151; in experiment [7] it was 0.051; in experiment [8] it was 1.31. Also, the “fold change (FC)” value in [9] was 1.01; in [10], 1.01; in experiment [11], “>=1.001”; in experiment [12] it was 0.601.
For `C[C@H](Cc1nncn1C)c1cccc(N2Cc3c(cc(N[C@H]4CCNC4)cc3C(F)(F)F)C2=O)c1`, in [1], the IC50 was less than 100 nM. Further, the Kd in experiment [2] is less than 100 nM. In addition, the “fold change (FC)” value in [3] is on record as 2.51; in [4] it was 2.51; in [5], 1.01; in [6], 0.151; in experiment [7], 0.101; in [8], 1.01. Also, the “fold change (FC)” value in experiment [9] is recorded as 1.01; in [10], 1.01; in experiment [11], “>=1.001”; in experiment [12] it was 0.801.
Consider `C[C@@H]1[C@@H](c2nncn2C)[C@H]1c1cccc(N2Cc3c(cccc3C(F)(F)F)C2=O)c1`, for which the IC50 in experiment [1] was less than 100 nM. The molecule further gave a Kd in [2] of less than 100 nM. In addition, the “fold change (FC)” value is 5 in [3]; 2.51 in experiment [4]; “>=7.5” in experiment [5]; “>=0.201” in experiment [6]; 0.101 in [7]; 1.31 in [8]. Further, the “fold change (FC)” value in experiment [9] is listed as 1.01; in experiment [10], “>=1.76”; in experiment [11] it was “>=1.001”; in experiment [12] it was “>=1.001”.
Molecule `C[C@H](Cc1nncn1C)c1cccc(N2Cc3c(cc([C@@H](C)N4CC[C@H](F)C4)cc3C(F)(F)F)C2=O)c1` came in with an IC50 in experiment [1] of less than 100 nM. Also, the Kd in experiment [2] was less than 100 nM. Moreover, the “fold change (FC)” value in experiment [3] is reported as “>=7.5”; in experiment [4] it was “>=7.5”; in experiment [5], 5; in experiment [6] it was “>=0.201”; in [7] it was 0.151; in experiment [8], 1.31. In addition, the “fold change (FC)” value in experiment [9] is 1.01; in experiment [10] it was 1.01; in [11] it was “>=1.001”; in experiment [12], “>=1.001”.

The record behind these values is ChEMBL document CHEMBL5050844 (2019).
